Data as given in patent publication US8324395B2, “Heterocyclic compound and use thereof” (Takeda Pharmaceutical Company Limited, priority 2007, dated 2012).

Columns and labels:
[1] = tested on: Colon Cancer Cell HT-29 Intracellular MEK Phosphorylation; assay: Colon cancer cell HT-29 intracellular MEK phosphorylation inhibitory action in vitro; format: cell-based; conditions: Homo sapiens; HT-29 cells, 2 hr treatment; phosphorylated MEK1/2 (Ser217/221) by Western blot
Description: A cell suspension (500 μL) of human colon cancer cell HT-29 was plated in a 48-well plate (100,000 cells/well), and the cells were cultured overnight at 37° C. in the presence of 5% CO2, treated with a test compound (250 μL/well) diluted in 3-fold dilution series and cultured for two more hours. After 2 hr, the culture medium containing the test compound was removed, and the cells were lysed with SDS sample buffer (100 μL/well) and heated at 95° C. for 5 min. Thereafter, the cells were applied to SDS-PAGE, and the protein was transferred onto Sequi-Blot™ PVDF Membrane (Bio-Rad) by the Western blot method. The cells were blocked with a block-Ace solution (Snow Brand Milk Products Co., Ltd) dissolved in phosphate buffer to 5% W/V, and reacted overnight with anti-phosphorylated MEK1/2 (Ser217/221) (Cell signaling #9121) diluted 1000-fold with phosphate buffer containing 0.4% block-Ace. The membrane was washed with phosphate buffer containing 0.1% Tween 20 (Wako Pure Chemical Industries, Ltd.), and reacted at room temperature for 1 hr with HRP labeled […] (Cell signaling #7074) diluted 1000-fold with phosphate buffer containing 0.4% block-Ace. The membrane was washed in the same manner as above, chemical luminescence of a phosphorylated MEK1/2 protein labeled with the antibody, which was caused by ECL-plus Detection Reagent (Amersham bioscience), was detected by Luminescent Image Analyzer LAS-1000 (FUJIFILM Corporation). Taking the luminescence of the control group free of the test compound as 100%, the concentration (IC50 value) of the compound necessary for inhibiting the residual luminescence to 50% of the control group was calculated.

BRAF (V600E) kinase = biological target: T1, BRAF (V600E) kinase (Homo sapiens, UniProt P15056, V600E); assay: Determination of BRAF (V600E) kinase inhibitory activity; format: biochemical; conditions: 1.0 μM test compound; BRAF (V600E) enzyme, GST-MEK1 (K96R) substrate, [γ-32P]ATP; read-out: Inhibitory rate (%) at 1.0 μM
T1 construct: Flag (N); made in house; host or cells: SF-21 insect cells, recombinant baculovirus BAC-V600E
Description: Human BRAF gene was cloned by PCR using human Testis cDNA library (Clontech) as a template. The primer used for PCR was prepared from base sequence (Genbank Accession No.: NM_004333) information of BRAF gene by adding a base sequence encoding flag peptide and a recognition sequence of the restriction enzyme to area encoding the BRAF kinase domain region, so that the protein contains an N-terminal. Flag. The primer base sequence is shown below.
The PCR reaction was conducted using Pyrobest (Takara Shuzo Co., Ltd). The obtained PCR product was electrophoresed on agarose gel (1%), the DNA fragment amplified by PCR was recovered from the gel, and then digested with restriction enzymes EcoRI and SalI. The DNA treated with the restriction enzymes was electrophoresed on agarose gel (1%), and the obtained DNA fragment was recovered. The recovered DNA fragment was ligated to plasmid pFASTBAC1 (Invitrogen) digested with restriction enzymes EcoRI and SalI to give expression plasmid pFB-BRAF, and the base sequence of the insert fragment was confirmed. In addition, mutation was introduced into V600E using a Quick change Site Directed Mutagenesis kit (Stratagene). The base sequences of the primers used are shown in the following.
The obtained plasmid was sequenced to confirm the introduction of mutation into V600E. The DNA was digested with restriction enzymes EcoRI and SalI, DNA treated with the restriction enzymes was electrophoresed on agarose gel (1%), and the obtained DNA fragment was recovered. The recovered DNA fragment was ligated to plasmid pFASTBAC1 (Invitrogen) digested with restriction enzymes EcoRI and SalI to give expression plasmid pFB-V600E.
Using BAC-TO-BAC Baculovirus Expression System (Invitrogen), virus stock BAC-V600E of recombinant baculovirus was prepared.
SF-21 cells were sown at 1×10^6 cells/mL to Sf-900II SFM medium (1 L, Invitrogen) containing 10% fetal bovine serum (Trace), 50 mg/L Gentamicin (Invitrogen) and 0.1% Pluronic F-68 (Invitrogen), and shaking culture was performed using a 2 L volume Erlenmeyer flask at 27° C., 100 rpm. After culturing for 24 hr, recombinant baculovirus BAC-V600E (13.4 mL) was added to the mixture, and the mixture was further cultured for 3 days. The culture medium was centrifuged at 2,000 rpm for 5 min to give virus-infected cells. The infected cells were washed with a phosphate buffered saline (Invitrogen), centrifuged under the same conditions, and the cells were preserved at −80° C. The cryopreserved cells were thawed in ice, suspended in buffer A (50 mM Tris buffer (30 mL, pH 7.4) containing 20% glycerol, 0.15 M NaCl) supplemented with Complete Protease Inhibitor (Boehringer), and ruptured 3 times with a Polytron homogenizer (Kinematica) at 20,000 rpm for 30 sec. The ruptured medium was clarified by centrifugation at 40,000 rpm for 30 min and filtered with a 0.45 μm filter. The filtrate was passed through a column packed with Anti-FLAG M2 Affinity Gel (4 mL, Sigma) at a flow rate of about 0.5 mL/min. The column was washed with buffer A, and eluted with buffer A containing 100 μg/mL of FLAG peptide. The buffer of this eluate was exchanged using NAP25 column (Amersham Bioscience) equilibrated with buffer A and the fractions were cryopreserved at −80° C.
A test compound (2.5 μL) dissolved in dimethyl sulfoxide (DMSO) was added to 37.5 μL of a reaction mixture (25 mM HEPES (pH 7.5), 10 mM magnesium acetate, 1 mM dithiothreitol) containing BRAF (V600E) enzyme (30 ng) and recombinant type protein GST-MEK1 (K96R) 250 ng, and the mixture was incubated at room temperature for 10 min. ATP solution (10 μL, 2.5 μM ATP, 0.1 μCi [γ-^32P]ATP) was added to the obtained mixture, and the mixture was reacted at room temperature for 20 min. The reaction was quenched by adding 50 μL of ice-cooled. 20% trichloroacetic acid (Wako Pure Chemical Industries, Ltd.) to the reaction mixture. […]

[2] = tested on: human colon cancer cell HT-29; assay: Colon cancer cell HT-29 growth suppressive action in vitro; format: cell-based; conditions: 72 h, HT-29 cells, 3 days culture, SRB staining of cell protein
Description: A cell suspension (100 μL, 3,000 cells/well) of human colon cancer cell HT-29 (purchased from ATCC) was plated in a 96-well plate, and the cells were cultured at 37° C. in a 5% carbon dioxide gas incubator. The next day, 2-fold serial dilution of each test compound solution (diluted from maximum concentration 20 μM) (100 μL) was added, and the cells were cultured for 3 days. The culture medium containing the test compound was removed, and the cells were washed with phosphate buffer (PBS). A 50% trichloroacetic acid solution was added to the final concentration of 10% (v/v), and the mixture was stood overnight at 4° C., whereby the cells were fixed to the plate. Then, a dye SRB 0.4% (w/v) solution (dissolved in 1% acetic acid) was added at 50 μl/well, whereby the cell protein was fixed and stained (Skehan et al., Journal Of National Cancer Institute, vol. 82, pp. 1107-1112, 1990). The cells were washed 3 times with 1% acetic acid solution (200 μL/well), and 100 μL of an extract (10 mM Tris buffer) was added to extract the dye. The absorbance at an absorption wavelength […] was measured, and cell amount was measured as a protein amount. Taking the protein amount of the control group free of the test compound solution as 100%, the proportion of the residual protein amount of each treatment group was determined and the concentration of the compound necessary for suppressing the residual cell amount to 50% of the control (IC50 value) was calculated.

T1 sequence (P15056 457-717 V600E limits assumed): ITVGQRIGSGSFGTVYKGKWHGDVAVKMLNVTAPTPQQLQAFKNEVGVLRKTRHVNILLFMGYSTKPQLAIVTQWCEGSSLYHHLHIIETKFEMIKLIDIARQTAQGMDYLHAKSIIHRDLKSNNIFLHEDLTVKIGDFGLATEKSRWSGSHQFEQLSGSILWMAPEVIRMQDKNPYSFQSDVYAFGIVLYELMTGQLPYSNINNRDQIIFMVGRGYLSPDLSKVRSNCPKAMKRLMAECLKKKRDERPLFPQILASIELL

| IC50 [1] [nM] | inhibition at 1 µM (BRAF (V600E) kinase) [%] | IC50 [2] [nM] | SMILES |
| --- | --- | --- | --- |
| < 500 | 98 | – | COc1ccc(NC(=O)c2cccc(C(C)(C)C#N)c2)cc1Oc1ccc2nc(NC(=O)C3CC3)sc2c1 [Example A21, 3-(1-cyano-1-methylethyl)-N-[3-({2-[(cyclopropylcarbonyl)amino]-1,3-benzothiazol-6-yl}oxy)-4-methoxyphenyl]benzamide] |
| – | – | < 500 | CC(=O)Nc1nc2ccc(Oc3cc(NC(=O)c4cccc(C(C)(C)C#N)c4Cl)ccc3F)cc2s1 [Example A47, N-(3-{[2-(acetylamino)-1,3-benzothiazol-6-yl]oxy}-4-fluorophenyl)-2-chloro-3-(1-cyano-1-methylethyl)benzamide] |
| – | 99 | – | O=C(Nc1cccc(Oc2ccc3nc(NC(=O)C4CC4)[nH]c3c2)c1)c1cccc(C(F)(F)F)c1 [Example C1, N-[3-({2-[(cyclopropylcarbonyl)amino]-1H-benzimidazol-6-yl}oxy)phenyl]-3-(trifluoromethyl)benzamide] |
| < 500 | – | – | CC(C)(C#N)c1cccc(C(=O)Nc2cccc(Oc3ccc4nc(NC(=O)C5CC5)oc4c3)c2)c1 [Example B3, 3-(1-cyano-1-methylethyl)-N-[3-({2-[(cyclopropylcarbonyl)amino]-1,3-benzooxazol-6-yl}oxy)phenyl]benzamide] |
| < 500 | – | – | Cc1ccc(Oc2ccc3nc(NC(=O)C4CC4)sc3c2)cc1NC(=O)c1cccc(C(C)(C)C#N)c1 [Example A7, 3-(1-cyano-1-methylethyl)-N-[5-({2-[(cyclopropylcarbonyl)amino]-1,3-benzothiazol-6-yl}oxy)-2-methylphenyl]benzamide] |
| – | – | < 500 | CN1CCN(CC(=O)Nc2nc3ccc(Oc4cccc(NC(=O)c5cccc(C(C)(C)C#N)c5)c4)cc3s2)CC1 [Example A13, 3-(1-cyano-1-methylethyl)-N-{3-[(2-{[(4-methylpiperazin-1-yl)acetyl]amino}-1,3-benzothiazol-6-yl)oxy]phenyl}benzamide] |
| – | – | < 500 | CC(=O)Nc1nc2ccc(Oc3ccc(C)c(NC(=O)c4cccc(C(C)(C)C#N)c4)c3)cc2s1 [Example A49, N-(5-{[2-(acetylamino)-1,3-benzothiazol-6-yl]oxy}-2-methylphenyl)-3-(1-cyano-1-methylethyl)benzamide] |
| < 500 | – | – | Cc1ccc(Oc2ccc3nc(NC(=O)CO)sc3c2)cc1NC(=O)c1cccc(C(C)(C)C#N)c1 [Example A10, 3-(1-cyano-1-methylethyl)-N-(5-{[2-(glycoloylamino)-1,3-benzothiazol-6-yl]oxy}-2-methylphenyl)benzamide] |
| < 500 | – | – | CC(C)(C#N)c1cccc(C(=O)Nc2cccc(Oc3ccc4nc(NC(=O)CO)sc4c3)c2)c1 [Example A14, 3-(1-cyano-1-methylethyl)-N-(3-{[2-(glycoloylamino)-1,3-benzothiazol-6-yl]oxy}phenyl)benzamide] |

Continued, compound first:

| SMILES | IC50 [1] [nM] | inhibition at 1 µM (BRAF (V600E) kinase) [%] | IC50 [2] [nM] |
| --- | --- | --- | --- |
| CN1CCN(CC(=O)Nc2nc3ccc(Oc4cccc(NC(=O)c5cccc(C6(C#N)CC6)c5)c4)cc3s2)CC1 [Example A16, 3-(1-cyanocyclopropyl)-N-{3-[(2-{[(4-methylpiperazin-1-yl)acetyl]amino}-1,3-benzothiazol-6-yl)oxy]phenyl}benzamide] | < 500 | – | – |
| N#CC1(c2cccc(C(=O)Nc3cccc(Oc4ccc5nc(NC(=O)C6CC6)sc5c4)c3)c2)CC1 [Example A1, 3-(1-cyanocyclopropyl)-N-[3-({2-[(cyclopropylcarbonyl)amino]-1,3-benzothiazol-6-yl}oxy)phenyl]benzamide] | – | 98 | – |
| O=C(CO)Nc1nc2ccc(Oc3cccc(C(=O)Nc4ccc(C(F)(F)F)cc4)c3)cc2s1 [Example A26, 3-{[2-(glycoloylamino)-1,3-benzothiazol-6-yl]oxy}-N-[4-(trifluoromethyl)phenyl]benzamide] | < 500 | – | – |
| N#CC1(c2cccc(C(=O)Nc3cccc(Oc4ccc5nc(NC(=O)c6cocn6)sc5c4)c3)c2)CC1 [Example A15, N-[6-(3-{[3-(1-cyanocyclopropyl)benzoyl]amino}phenoxy)-1,3-benzothiazol-2-yl]-1,3-oxazole-4-carboxamide] | – | 100 | – |
| O=C(Nc1cccc(C(F)(F)F)c1)c1cccc(Oc2ccc3nc(NC(=O)C4CC4)sc3c2)c1 [Example A29, 3-({2-[(cyclopropylcarbonyl)amino]-1,3-benzothiazol-6-yl}oxy)-N-[3-(trifluoromethyl)phenyl]benzamide] | – | 100 | – |
| O=C(Nc1cccc(Oc2ccc3nc(NC(=O)C4CC4)oc3c2)c1)c1cccc(C(F)(F)F)c1 [Example B1, N-[3-({2-[(cyclopropylcarbonyl)amino]-1,3-benzooxazol-6-yl}oxy)phenyl]-3-(trifluoromethyl)benzamide] | – | 100 | – |
| O=C(Nc1ccc(C(F)(F)F)cc1)c1cccc(Oc2ccc3nc(NC(=O)C4CC4)sc3c2)c1 [Example A25, 3-({2-[(cyclopropylcarbonyl)amino]-1,3-benzothiazol-6-yl}oxy)-N-[4-(trifluoromethyl)phenyl]benzamide] | – | 100 | – |
| Cc1ccc(Oc2ccc3nc(NC(=O)CO)sc3c2)cc1NC(=O)c1cccc(C2(C#N)CC2)c1 [Example A6, 3-(1-cyanocyclopropyl)-N-(5-{[2-(glycoloylamino)-1,3-benzothiazol-6-yl]oxy}-2-methylphenyl)benzamide] | – | 99 | – |
